Measured values as given in EP1105395B1, “PHOTOCYCLIZED RAPAMYCINS” (priority 1998, dated 2000).
In brackets after ≈: the same amount, converted by molar mass.

Key:
Assay type in all cases: cell-based
Candida pseudotropicalis = experiment: Antifungal activity, microtiter broth dilution MIC; conditions: Candida pseudotropicalis ID ATCC 28838; 35 °C, 24-48 hours
Protocol: (§1) Antifungal activity for the compounds of this invention was established by evaluating a representative compound of this invention (Compound I) against several strains of fungi. Briefly the following procedure was used to evaluate such activity. A 96 U-bottom microtiter plate was filled (50 µl/well) with RPMI 1640. The compounds to be evaluated were placed in appropriate wells, and serial diluted in successive wells to provide 11 dilutions. The concentrations ranged from 64 through 0.06 µg/ml. An adjusted inoculum of fungi (50 µl) was added to each well and the plates were incubated at 35 °C for 24-48 hours. […]

Aspergillus flavus = experiment: Antifungal activity, microtiter broth dilution MIC; conditions: Aspergillus flavus ID ATCC 12963; 35 °C, 24-48 hours
Protocol: as §1

Candida zeylanoided = experiment: Antifungal activity, microtiter broth dilution MIC; conditions: Candida zeylanoided ID 94-15; 35 °C, 24-48 hours
Protocol: as §1

Candida parapsilosis = experiment: Antifungal activity, microtiter broth dilution MIC; conditions: 35 °C, 24-48 hours
Protocol: as §1

Saccharomyces cerevisiae = experiment: Antifungal activity, microtiter broth dilution MIC; conditions: Saccharomyces cerevisiae ID ATCC 2601; 35 °C, 24-48 hours
Protocol: as §1

Aspergillus fumigatus = experiment: Antifungal activity, microtiter broth dilution MIC; conditions: Aspergillus fumigatus ID ATCC 26933; 35 °C, 24-48 hours
Protocol: as §1

Candida krussii = experiment: Antifungal activity, microtiter broth dilution MIC; conditions: Candida krussii ID 94-2; 35 °C, 24-48 hours
Protocol: as §1

[1] = tested on: Filobasidiella neoformans; experiment: Antifungal activity, microtiter broth dilution MIC; conditions: Filobasidiella neoformans ID ATCC 7472; 35 °C, 24-48 hours
Protocol: as §1

Cryptococcus neoformans = experiment: Antifungal activity, microtiter broth dilution MIC; conditions: Cryptococcus neoformans ID ATCC 90112; 35 °C, 24-48 hours
Protocol: as §1

Aspergillus niger = experiment: Antifungal activity, microtiter broth dilution MIC; conditions: Aspergillus niger ID S-430; 35 °C, 24-48 hours
Protocol: as §1

Candida lusitaniae = experiment: Antifungal activity, microtiter broth dilution MIC; conditions: Candida lusitaniae ID 94-3; 35 °C, 24-48 hours
Protocol: as §1

Candida rugosa = experiment: Antifungal activity, microtiter broth dilution MIC; conditions: Candida rugosa ID 94-10; 35 °C, 24-48 hours
Protocol: as §1

Candida albicans = experiment: Antifungal activity, microtiter broth dilution MIC; conditions: 35 °C, 24-48 hours
Protocol: as §1

Candida tropicalis = experiment: Antifungal activity, microtiter broth dilution MIC; conditions: 35 °C, 24-48 hours
Protocol: as §1

Candida glabrata = experiment: Antifungal activity, microtiter broth dilution MIC; conditions: Candida glabrata ID ATCC 90030; 35 °C, 24-48 hours
Protocol: as §1

[2] = tested on: A2780DDP (ovarian - resistant to cis-platin); experiment: Antineoplastic activity, tumor cell growth inhibition (sulforhodamine B); conditions: A2780DDP cells, 48 hours, inhibition of growth
From the text: (§2) Antineoplastic activity for the compounds of this invention was established by evaluating the antineoplastic activity of a representative compound of this invention (Compound I) against six tumor cell lines in vitro. Briefly, tumor cells from six cell lines were placed in wells of a 96 well microtiter plate. The following tumor cell lines were used: A2780S (ovarian), A2780DDP (ovarian - resistant to cis-platin), A431 (vulva epidermoid origin), SW620 (colon), SKBR3 (breast), and MDA-MB-435 (breast). The tumors cells were grown in the presence of serial dilutions of the compound to be evaluated for 48 hours, and cell growth determined using a colorimetric procedure (sulforhrodamine B). The inhibition of growth was calculated compared to the number of cells at the time of test compound addition. Results are expressed as an IC50 (µg/ml). […] In particular, the compounds of this invention are useful against solid tumors, including sarcomas and carcinomas; and more particularly against astrocytomas, prostate cancer, breast cancer, colon cancer, small cell lung cancer, and ovarian cancer; and adult T-cell leukemia/lymphoma.

MDA-MB-435 (breast) = experiment: as above; conditions: MDA-MB-435 cells, 48 hours, inhibition of growth
From the text: as §2

SKBR3 (breast) = experiment: as above; conditions: SKBR3 cells, 48 hours, inhibition of growth
From the text: as §2

[3] = tested on: A431 (vulva epidermoid origin); experiment: as above; conditions: A431 cells, 48 hours, inhibition of growth
From the text: as §2

A2780S (ovarian) = experiment: as above; conditions: A2780S cells, 48 hours, inhibition of growth
From the text: as §2

SW620 (colon) = experiment: as above; conditions: SW620 cells, 48 hours, inhibition of growth
From the text: as §2

[4] = Candida parapsilosis ID ATCC 90018

Row | SMILES | MIC (Candida pseudotropicalis) [µg/mL] | MIC (Aspergillus flavus) [µg/mL] | MIC (Candida zeylanoided) [µg/mL] | MIC (Candida parapsilosis; Candida parapsilosis ID 94-8) [µg/mL] | MIC (Candida parapsilosis; Candida parapsilosis ID 94-9) [µg/mL] | MIC (Candida parapsilosis; [4]) [µg/mL] | MIC (Saccharomyces cerevisiae) [µg/mL] | MIC (Aspergillus fumigatus) [µg/mL] | MIC [1] [µg/mL] | MIC (Cryptococcus neoformans) [µg/mL] | MIC (Aspergillus niger) [µg/mL] | MIC (Candida lusitaniae) [µg/mL] | MIC (Candida rugosa) [µg/mL] | MIC (Candida albicans; Candida albicans ID 94-1) [µg/mL] | MIC (Candida albicans; Candida albicans ID 1063) [µg/mL] | MIC (Candida albicans; Candida albicans ID 1117) [µg/mL] | MIC (Candida albicans; Candida albicans ID ATCC 90028) [µg/mL] | MIC (Candida albicans; Candida albicans ID C-83) [µg/mL] | MIC (Candida tropicalis; Candida tropicalis ID 94-13) [µg/mL] | MIC (Candida tropicalis; Candida tropicalis ID 94-14) [µg/mL] | also measured
1 | C[C@@H]1[C@H](O)[C@@H](C)/C=C/C=C/C=C/C=C/C=C/C=C/C=C/[C@H](O[C@@H]2O[C@H](C)[C@@H](O)[C@H](N)[C@@H]2O)C[C@@H]2O[C@](O)(C[C@@H](O)C[C@@H](O)[C@H](O)CC[C@@H](O)C[C@@H](O)CC(=O)O[C@H]1C)C[C@H](O)[C@H]2C(=O)O [Amphtericin B] | 0.25 (≈ 0.271 µM) | 2 (≈ 2.16 µM) | 0.25 (≈ 0.271 µM) | 0.25 (≈ 0.271 µM) | 0.5 (≈ 0.541 µM) | ≤0.12 | ≤0.12 | 0.25 (≈ 0.271 µM) | 0.12 (≈ 0.13 µM) | ≤0.12 | 0.25 (≈ 0.271 µM) | ≤0.12 | 0.25 (≈ 0.271 µM) | ≤0.12 | 0.25 (≈ 0.271 µM) | 0.25 (≈ 0.271 µM) | 0.25 (≈ 0.271 µM) | 0.25 (≈ 0.271 µM) | 0.25 (≈ 0.271 µM) | 0.25 (≈ 0.271 µM) | MIC (Candida krussii): 0.5 µg/mL (≈ 0.541 µM); MIC (Candida glabrata): 0.25 µg/mL (≈ 0.271 µM)
2 | CO[C@H]1C[C@@H]2CC[C@@H](C)[C@@](O)(O2)[C@]2(O)C(=O)N3[C@@H](CCC[C@@H]32)C(=O)O[C@H]([C@H](C)C[C@@H]2CC[C@@H](O)[C@H](OC)C2)CC(=O)[C@H](C)/C=C(\C)[C@@H](O)[C@@H](OC)C(=O)[C@H](C)C[C@H](C)/C=C/C=C/C=C/1C [Compound I, (1S, 2R, 3R, 6S, 8S, 9E, 11E, 13E, 15S, 17R, 19R, 20R, 21E, 23R, 26S, 29S, 33R)-1,2, 30-Trihydroxy-26-[(1R)-2-[(1S, 3R, 4R)-4-hydroxy-3-methoxycyclohexyl]-1-methylethyl]-8, 19-dimethoxy-3,9,15, 17, 21, 23-hexamethyl-27, 36-dioxa-35-azatetracyclo[27.4.2.1.[2, 6].0 [33, 35]] hexatriaconta-9, 11, 13, 21-tetraene-18, 24, 28, 34-tetrone] | 4 (≈ 4.38 µM) | ≥64 | 8 (≈ 8.75 µM) | 8 (≈ 8.75 µM) | 8 (≈ 8.75 µM) | 8 (≈ 8.75 µM) | 8 (≈ 8.75 µM) | ≥64 | ≥64 | 8 (≈ 8.75 µM) | ≥64 | 4 (≈ 4.38 µM) | 16 (≈ 17.5 µM) | 16 (≈ 17.5 µM) | 16 (≈ 17.5 µM) | 32 (≈ 35 µM) | 16 (≈ 17.5 µM) | ≥64 | 16 (≈ 17.5 µM) | 8 (≈ 8.75 µM) | MIC (Candida glabrata): 8 µg/mL (≈ 8.75 µM); IC50 [2]: 6.51 µg/mL (≈ 7.12 µM); IC50 (MDA-MB-435 (breast)): 27.28 µg/mL (≈ 29.8 µM); IC50 (SKBR3 (breast)): 7.029 µg/mL (≈ 7.69 µM); IC50 [3]: 20.46 µg/mL (≈ 22.4 µM); IC50 (A2780S (ovarian)): 8.756 µg/mL (≈ 9.58 µM); IC50 (SW620 (colon)): 24.84 µg/mL (≈ 27.2 µM)
